Source: US20260042772A1, “FURO PYRIMIDINE DERIVATES” (Merck Patent GmbH, priority 2022, published 2026)
Where two headings read alike, the source gives them in different places.

Experiments:
[1] = test system: sensitive (NF54) strains of P. falciparum; test: In vitro P. falciparum assay, modified [3H]hypoxanthine incorporation assay; type: cell-based; conditions: Plasmodium falciparum, NF54 strain
From the text: Compounds according to the present invention were screened against sensitive (NF54) strains of P. falciparum in vitro using the modified [3H]hypoxanthine incorporation assay. (Vennerstrom, J. L.; Arbe-Barnes, S.; Brun, R.; Charman, S. A.; Chiu, F. C. K.; Chollet, J.; Dong, Y.; Dorn, A.; Hunziker, D.; Matile, H.; McIntosh, K.; Padmanilayam, M.; Tomas, J. S.; Scheurer, C.; Scorneaux, B.; Tang, Y.; Urwyler, H.; Wittlin, S. and Charman, W. N. Identification of an Antimalarial Synthetic Trioxolane Drug Development Candidate. Nature, 2004, 430, 900-904.).
Compound concentrations at which growth of P. falciparum was inhibited by 50% compared to untreated controls was measured in nM (IC50).
Compound concentrations at which growth of P. falciparum was inhibited by 50% compared to untreated controls was measured in nM (IC50) as described above (PfNF54 IC50 (nM)).

human PI4Kβ (HuPI4Kβ) = human PI4Kβ (HuPI4Kβ) (Homo sapiens (Human), UniProt Q9UBF8); test: HuPI4Kβ lipid kinase inhibition, ADP-Glo Kinase Assay; type: biochemical; conditions: recombinant enzyme
Sequence of human PI4Kβ (HuPI4Kβ) (Q9UBF8 whole entry): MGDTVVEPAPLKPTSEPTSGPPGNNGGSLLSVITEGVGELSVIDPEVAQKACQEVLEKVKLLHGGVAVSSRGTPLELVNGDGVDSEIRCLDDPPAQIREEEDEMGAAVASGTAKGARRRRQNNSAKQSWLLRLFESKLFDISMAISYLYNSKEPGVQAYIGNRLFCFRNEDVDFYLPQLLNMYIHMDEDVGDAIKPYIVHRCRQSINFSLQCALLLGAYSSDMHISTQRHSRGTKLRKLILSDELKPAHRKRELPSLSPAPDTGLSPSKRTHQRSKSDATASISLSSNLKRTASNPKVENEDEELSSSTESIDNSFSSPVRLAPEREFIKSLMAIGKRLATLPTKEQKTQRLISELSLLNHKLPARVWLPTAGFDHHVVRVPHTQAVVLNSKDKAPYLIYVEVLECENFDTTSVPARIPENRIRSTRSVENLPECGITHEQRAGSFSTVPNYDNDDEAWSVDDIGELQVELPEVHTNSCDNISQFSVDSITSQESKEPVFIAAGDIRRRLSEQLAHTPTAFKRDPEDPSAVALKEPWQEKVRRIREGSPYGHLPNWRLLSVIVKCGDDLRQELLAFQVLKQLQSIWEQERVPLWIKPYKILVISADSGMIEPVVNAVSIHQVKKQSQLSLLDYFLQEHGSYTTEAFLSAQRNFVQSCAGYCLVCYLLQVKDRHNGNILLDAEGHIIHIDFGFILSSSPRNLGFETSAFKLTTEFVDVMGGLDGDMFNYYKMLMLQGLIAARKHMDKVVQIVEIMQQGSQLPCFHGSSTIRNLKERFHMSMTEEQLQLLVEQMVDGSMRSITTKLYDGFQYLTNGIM
Method: To further test the impact of compounds according to the present invention on human PI4Kβ, HuP[…]β inhibition was tested for selected compounds and contrasted with the results for inhibiting PfNF54 strains as described in the example above. The lipid kinase reaction is performed by incubating lipid substrate (PI:3PS or PIP2:3PS) with a recombinant enzyme and ATP, and the kinase activity is measured using the ADP-GloTM Kinase Assay. First, the kinase reaction is terminated, and any ATP remaining after the reaction is depleted, leaving only ADP. Then the Kinase Detection Reagent is added to convert ADP to ATP, which is used in a coupled luciferin/luciferase reaction. The luminescent output is measured and is correlated with kinase activity. The assays can be performed in 96- or 384-well plates and can be used for enzyme characterization, inhibitor screening or compound profiling. Results measuring the effect of compounds on HuP[…]β are reported in table 2 in nM (IC50) describing the concentration necessary to inhibit 50% of the enzyme's activity (HuP[…]β IC50 (nM)).

[2] = test system: chloroquine sensitive (CQS) strain (NF54) of P. falciparum; test: In vitro antiplasmodial activity, Assay A (parasite lactate dehydrogenase assay); type: cell-based; conditions: Plasmodium falciparum
Method: Test samples were screened for in vitro antiplasmodial activity against a chloroquine sensitive (CQS) strain (NF54) of the malaria parasite P. falciparum. Continuous in vitro cultures of asexual erythrocyte stages of P. falciparum were maintained using a modified version of the method of Trager and Jensen (1976).1 Quantitative assessment of antiplasmodial activity in vitro was determined via the parasite lactate dehydrogenase assay using a modified method described by Makler (1993). The test samples were tested in triplicate on two separate occasions. Further dilutions were prepared in complete medium on the day of the experiment. Samples were tested as a suspension if not completely dissolved. Chloroquine and artesunate were used as the reference drugs. A full dose-response were performed starting at a concentration of 3000 nM, which is then serially diluted 2-fold in complete medium to give 10 concentrations; with the lowest concentration being approximately 6 nM. The same dilution techniques were used for all samples. References were tested at a starting concentration of 1000 ng/mL. The highest concentration of solvent to which the parasites were exposed has no measurable effect on the parasite viability (data not shown).

[3] = test system: CQC sensitive strain (NF54) of P. falciparum; test: In vitro antiplasmodial activity, Assay B (as described by Vennerstrom et al. 2004); type: cell-based; conditions: Plasmodium falciparum; NF54, Vennerstrom et al. method
Method: Compounds were screened against CQC sensitive strain (NF54) of P. falciparum in vitro as described by Vennerstrom et al. (2004). A full dose-response were performed starting at a concentration of 3000 nM, which is then serially diluted 2-fold in complete medium to give 10 concentrations; with the lowest concentration being approximately 6 nM. The same dilution techniques were used for all samples. References were tested at a starting concentration of 1000 ng/mL. The highest concentration of solvent to which the parasites were exposed has no measurable effect on the parasite viability (data not shown).

[4] = test system: P. vivax liver-stage hypnozoites; test: In vitro P. vivax liver-stage assay in primary human hepatocytes, radical cure mode: hypnozoites; type: cell-based; conditions: Plasmodium vivax, Hepatocyte, infected primary human hepatocytes, read-out: Pv Hypnozoite IC50
Method: (§1) Compound efficacy against P. vivax liver-stage schizonts and hypnozoites is evaluated in infected primary human hepatocytes (PHHs). Compound screening is performed in 384-well plates, in a 12-point dose response, from 50 μM. All compounds are tested in radical cure mode (RCM). PHHs are seeded onto 384-well plates two days prior to P. vivax sporozoite infection. In RCM, compounds are added to the culture for three days, from day 5 post infection, in duplicate wells. Nigericin and a PI4K inhibitor (KDU691) are used as positive controls in each assay, while solvent (DMSO) without added compound serves as a negative control. Daily medium changes are performed, and the culture is fixed on day twelve post infection to ensure complete parasite clearance. Fixed cells are permeabilized and stained with an anti-UIS4 primary antibody and a fluorescent secondary antibody. Liver-stage schizonts and hypnozoites are then quantified by High Content Imaging. Roth, A., et al. A comprehensive model for assessment of liver stage therapies targeting Plasmodium vivax and Plasmodium falciparum. Nat. Commun. 2018, 9(1), 1837. doi.org/10.1038/s41467-018-04221-9.

[5] = test system: P. vivax liver-stage schizonts; test: In vitro P. vivax liver-stage assay in primary human hepatocytes, radical cure mode: schizonts; type: cell-based; conditions: Plasmodium vivax, Hepatocyte, infected primary human hepatocytes, read-out: Pv Schizont IC50
Method: as §1

[6] = growth inhibition, Table 2, read-out: PfNF54 IC50
[7] = [3H]hypoxanthine incorporation, read-out: In vitro P. falciparum growth inhibition IC50

Row | Structure (SMILES) | IC50 [1, 6] [nM] | IC50 (human PI4Kβ (HuPI4Kβ)) [nM] | IC50 [1, 7] [nM] | IC50 [2] [nM] | IC50 [3] [nM] | IC50 [4] [nM] | IC50 [5] [nM]
1 | CC(C)(O)c1cc(-c2ncnc3cc(-c4ccc(C(=O)N5CCOCC5)cc4)oc23)ccn1 [Compound C74, (4-{4-[2-(1-Hydroxy-1-methyl-ethyl)-pyridin-4-yl]-furo[3,2-d]pyrimidin-6-yl}-phenyl)-morpholin-4-yl-methanone] | 10 to 50 | > 500 |  |  |  |  | 
2 | C[C@@H]1COCCN1C(=O)c1ccc(-c2cc3ncnc(-c4ccnc(C(C)(C)O)c4)c3o2)cc1 [Compound C75, (4-{4-[2-(1-Hydroxy-1-methyl-ethyl)-pyridin-4-yl]-furo[3,2-d]pyrimidin-6-yl}-phenyl)-((R)-3-methyl-morpholin-4-yl)-methanone] | < 10 | > 500 |  |  |  |  | 
3 | C[C@@H]1CN(C(=O)c2ccc(-c3cc4ncnc(-c5ccnc(C(C)(C)O)c5)c4o3)cc2)C[C@H](C)O1 [Compound C76, 2-[4-(6-{4-[(2R,6S)-2,6-dimethylmorpholine-4-carbonyl]phenyl}furo[3,2-d]pyrimidin-4-yl)pyridin-2-yl]propan-2-ol] | < 10 | > 500 |  |  |  |  | 
4 | CN1CCN(C(=O)c2ccc(-c3cc4ncnc(-c5ccnc(C(C)(C)O)c5)c4o3)cc2)CC1 [Compound C77, 2-(4-{6-[4-(4-methylpiperazine-1-carbonyl)phenyl]furo[3,2-d]pyrimidin-4-yl}pyridin-2-yl)propan-2-ol] | 10 to 50 | > 500 |  |  |  |  | 
5 | CC(C)(O)c1cccc(-c2ncnc3cc(-c4ccc(S(C)(=O)=O)cc4)oc23)c1F [Compound D149, 2-(2-fluoro-3-(6-(4-(methylsulfonyl)phenyl)furo [3,2-d]pyrimidin-4-yl)phenyl)propan-2-ol] | < 10 | 100 to 500 | < 10 | < 15 | < 15 | < 15 | < 15
6 | CC(C)(O)c1cc(-c2ncnc3cc(-c4ccc(S(C)(=O)=O)cc4)oc23)cc(F)n1 [Compound D150, 2-(6-fluoro-4-(6-(4-(methylsulfonyl)phenyl)furo [3,2-d]pyrimidin-4-yl)pyridin-2-yl)propan-2-ol] |  |  | 10 to 50 | > 50 | 15 to 50 |  | 
7 | CC(C)(O)c1cccc(-c2ncnc3cc(-c4ccc(C(=O)N5CCOCC5)cc4)oc23)c1F [Compound D183, (4-(4-(2-fluoro-3-(2-hydroxypropan-2-yl)phenyl)furo[3,2-d]pyrimidin-6-yl)phenyl)(morpholino) methanone] | < 10 | 100 to 500 | < 10 | < 15 | < 15 | < 15 | < 15
8 | CC(C)(O)c1cccc(-c2ncnc3cc(-c4ccc(C(=O)N5C[C@@H]6C[C@H]5CO6)cc4)oc23)c1F [Compound D197, ((1S,4S)-2-oxa-5-azabicyclo[2.2.1]heptan-5-yl)(4-(4-(2-fluoro-3-(2-hydroxypropan-2-yl)phenyl)furo[3,2-d]pyrimidin-6-yl)phenyl)methanone] | < 10 | 100 to 500 | < 10 | < 15 | < 15 |  | 
9 | CC(C)(O)c1cccc(-c2ncnc3cc(-c4ccc(C(=O)O)cc4)oc23)c1F [Compound D201, 4-(4-(2-fluoro-3-(2-hydroxypropan-2-yl)phenyl)furo[3,2-d]pyrimidin-6-yl)benzoic acid] |  |  |  | 15 to 50 | 15 to 50 | 15 to 50 | < 15
10 | CC(C)(O)c1cccc(-c2ncnc3cc(-c4ccc(S(C)(=N)=O)cc4)oc23)c1F (centres unmarked) [Compound D203, (4-(4-(2-fluoro-3-(2-hydroxypropan-2-yl)phenyl)furo[3,2-d]pyrimidin-6-yl)phenyl)(imino)(methyl)-λ6-sulfanone] |  |  | < 10 | < 15 | < 15 | 15 to 50 | < 15
11 | CN1CCN(C(=O)c2ccc(-c3cc4ncnc(-c5cccc(C(C)(C)O)c5F)c4o3)cc2)CC1 [Compound D204, (4-(4-(2-fluoro-3-(2-hydroxypropan-2-yl)phenyl)furo[3,2-d]pyrimidin-6-yl)phenyl)(4-methylpiperazin-1-yl)methanone] |  |  | < 10 |  | < 15 |  | 
12 | CC(C)(O)c1cccc(-c2ncnc3cc(-c4ccc([S@@](C)(=N)=O)cc4)oc23)c1F [Compound D209, (S)-(4-(4-(2-fluoro-3-(2-hydroxypropan-2-yl)phenyl)furo[3,2-d]pyrimidin-6-yl)phenyl)(imino)(methyl)-λ^6-sulfanone] |  |  | < 10 | < 15 |  |  | 
13 | CC(C)(O)c1cccc(-c2ncnc3cc(-c4ccc([S@](C)(=N)=O)cc4)oc23)c1F [Compound D210, (R)-(4-(4-(2-fluoro-3-(2-hydroxypropan-2-yl)phenyl)furo[3,2-d]pyrimidin-6-yl)phenyl)(imino)(methyl)-λ^6-sulfanone] |  |  | < 10 | < 15 |  |  | 
14 | CC(C)(O)c1cccc(-c2ncnc3cc(-c4ccc(S5(=O)=NCCCC5)cc4)oc23)c1F (centres unmarked) [Compound D211, 1-(4-(4-(2-fluoro-3-(2-hydroxypropan-2-yl)phenyl)furo[3,2-d]pyrimidin-6-yl)phenyl)-3,4,5,6-tetrahydro-1,2-thiazine 1-oxide] |  |  | < 10 |  |  |  | 
15 | CC(C)(O)c1cccc(-c2ncnc3cc(-c4ccc(S5(=O)=NCCC5)cc4)oc23)c1F (centres unmarked) [Compound D212, 1-(4-(4-(2-fluoro-3-(2-hydroxypropan-2-yl)phenyl)furo[3,2-d]pyrimidin-6-yl)phenyl)-4,5-dihydro-3H-isothiazole 1-oxide] |  |  | < 10 | < 15 |  |  | 
16 | CC(C)(O)c1cc(-c2ncnc3cc(-c4ccc(S(C)(=O)=O)cc4)oc23)ccn1 [Compound D213, 2-(4-(6-(4-(methylsulfonyl)phenyl)furo [3,2-d]pyrimidin-4-yl)pyridin-2-yl)propan-2-ol] |  |  | 10 to 50 |  |  | > 50 | < 15
17 | CC(C)(O)c1nccc(-c2ncnc3cc(-c4ccc(S(C)(=O)=O)cc4)oc23)c1F [Compound P31, 2-(3-fluoro-4-(6-(4-(methylsulfonyl)phenyl)furo [3,2-d]pyrimidin-4-yl)pyridin-2-yl)propan-2-ol] |  |  |  | < 15 | < 15 |  | 
